Two compounds from US9738659B2, “Compositions of protein receptor tyrosine kinase inhibitors” (Purdue Pharma L.P., priority 2008, dated 2017) can be followed below.

Data set [1] concerns CCI rats. Put plainly: Chronic constriction injury (CCI) model of neuropathic pain in rats. Conditions: CCI rats after single oral dose. In kind it is in vivo, rat. An excerpt: Chronic Constriction Injury (CCI) Model of Neuropathic Pain in Rats.
The CCI model is one of the most commonly used mono-neuropathic pain model firstly described in details by Bennett and Xie (Bennett G J, Xie Y K. Pain. 1988; 33(1):87-107). It mimics important clinical chronic pain symptoms such as mechanical allodynia and thermal hyperalgesia. Chronic constriction injury of the sciatic nerve was produced by tying four loose ligatures around the left sciatic nerve according to the method of Bennett and Xie. […] Calibrated von Frey filaments were used to determine the lowest mechanical (tactile) threshold required to evoke a brisk paw withdrawal reflex in the rat hindpaws. Rats were allowed to acclimatize in wire mesh cages for 15-20 min prior to von Frey testing. Assessment of paw withdrawal thresholds (PWTs) using von Frey filaments was undertaken prior to CCI-surgery (pre-surgery baseline on day 0). Before the drug dosing on day 14, the pre-dose baseline was recorded for each rat. […] Drug-naïve CCI-rats (n=4-6 per group) were used. The oral vehicle was 0.5% CMC-Na/0.1% Tween 80 in distilled water. The positive control gabapentin was dissolved in the vehicle and orally given at 100 mg/kg (by oral gavage). Test compound was suspended in the vehicle and orally given at 50 mg/kg and 100 mg/kg. […]

Data set [2] deals with T1, TrkA (h) (Homo sapiens, UniProt P04629).
T1 construct: Recombinant Human Cytoplasmic Domain (amino acids 441-796); His tag; host or cells: insect cells
Put plainly: Radiometric based mixed micelle kinase assay. In kind it is biochemical. The note with it: read-out: IC50 antagonizing the TrkA kinase activity. How it is done:
Compound Inhibition in a Radiometric Based Mixed Micelle Assay:
In a final reaction volume of 25 μL, TrkA (h) (3 nM) is incubated with the kinase reaction buffer (20 mM HEPES (pH 7.5), 10 mM MgCl2, 1 mM EGTA, 0.02% Brij 35, 0.02 mg/ml BSA, 0.1 mM Na3VO4, 2 mM DTT, 1% DMSO), 0.2 mg/ml substrate PolyEY(4:1) and […], and [33P-ATP] (specific activity approx. 500 cpm/pmol, concentration as required). The reaction is initiated by the addition of the MgATP mix. After incubation for at least 40 minutes at room temperature, the reaction is stopped by the addition of 5 μL of a 3% phosphoric acid solution. 10 μL of the reaction is then spotted onto a P30 filtermat and washed three times for 5 minutes in 75 mM phosphoric acid and once in methanol prior to drying and scintillation counting. TrkA: Recombinant Human Cytoplasmic Domain (amino acids 441-796), Histidine-tagged, expressed in insect cells. Activated in vitro via auto-phosphorylation. Mw=42.8 kDa. Substrates for kinases: poly(EY) for TRKA; poly(EY)(4:1) with 2 mM MnCl2, average Mw=16 kDa Standard conditions (unless otherwise specified): 30 nM TRKA, 0.2 mg/ml poly(EY)+2 mM MnCl2, and 10 μM ([γ-^33P]) ATP. Using the similar assay condition with other kinases of recombinant human cytoplasmic domain, the activities of other kinases could be also measured.

T1 sequence (P04629 441-796): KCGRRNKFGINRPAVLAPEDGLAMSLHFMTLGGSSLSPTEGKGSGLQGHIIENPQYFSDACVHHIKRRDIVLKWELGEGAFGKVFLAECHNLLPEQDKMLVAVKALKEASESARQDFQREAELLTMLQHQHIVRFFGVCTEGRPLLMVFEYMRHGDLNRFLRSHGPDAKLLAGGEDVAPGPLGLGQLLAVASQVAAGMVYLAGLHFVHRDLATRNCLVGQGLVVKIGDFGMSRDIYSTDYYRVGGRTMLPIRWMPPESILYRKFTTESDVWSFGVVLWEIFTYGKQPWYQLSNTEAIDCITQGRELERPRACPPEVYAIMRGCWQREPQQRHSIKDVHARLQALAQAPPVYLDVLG

On to `NCC1(CC(=O)O)CCCCC1` [gabapentin], for which the “Observed side effects (drowsiness, motor incoordination, other abnormality)” value in data set [1] was “drowsiness or motor incoordination”.
For `Cc1ccc(Cl)cc1N1CCN(CCCNC(=O)c2ccc3c(c2)NC(=O)C2CCCCN32)CC1` (centres unmarked) [Compound 201, N-{3-[4-(5-chloro-2-methylphenyl)piperazin-1-yl]propyl}-6-oxo-6,6a,7,8,9,10-hexahydro-5H-pyrido[1,2-a]quinoxaline-3-carboxamide], the concentration for half-maximal inhibition (IC50) in data set [2] stood at 85 nM.

As a reminder, the IC50 is the point on the concentration scale where inhibition reaches its midpoint.
